Test results published in US7179800B2 (priority 2002, dated 2007).

Experiments:
[1] = molecular target: T1, CB2 receptor (Homo sapiens, UniProt P34972); assay: CB2 binding procedure: displacement of [3H]CP-55,940 from membranes of transfected CHO cells; conditions: for CB1/CB2 (ratio of Ki): CB1 Ki divided by CB2 Ki; for Ki: means ± SEM, [3H]CP-55,940, transfected CHO cell membranes, read-out: Ki (nM) CB2
T1 construct: expressed in transfected cells; host or cells: CHO cells, G418-selected transfected line
T1 sequence (P34972 whole entry): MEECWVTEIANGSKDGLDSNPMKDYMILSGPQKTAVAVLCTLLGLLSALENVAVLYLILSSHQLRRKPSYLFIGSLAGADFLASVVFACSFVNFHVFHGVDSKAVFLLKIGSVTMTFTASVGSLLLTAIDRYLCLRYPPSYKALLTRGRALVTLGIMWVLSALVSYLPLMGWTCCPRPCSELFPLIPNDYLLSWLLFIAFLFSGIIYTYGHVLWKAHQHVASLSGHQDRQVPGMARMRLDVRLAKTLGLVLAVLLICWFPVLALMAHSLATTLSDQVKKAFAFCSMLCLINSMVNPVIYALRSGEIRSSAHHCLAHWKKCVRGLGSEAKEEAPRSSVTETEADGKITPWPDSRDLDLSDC
Description: Membranes for CB2 binding were obtained from CHO cells. The transfected cell line was maintained in Dublecco's Modified Eagle Medium (Gibco BRL, Grand Island, N.Y.) with 10% fetal clone II (HyClone Laboratories, Inc., Logan, Utah) plus 0.3 to 0.5 mg/ml G418 (to maintain selective pressure) under 5% CO2 at 37% C. Cells were harvested with 1 mM EDTA in phosphate-buffered saline and were centrifuged at 1000×g for 5 min at 4% C. The supernatant was saved and the P1 pellet was resuspended in centrifugation buffer. Homogenization and centrifugation were repeated twice and the combined supernatant fractions were centrifuged at 40,000×g for 30 min at 4% C. The P2 pellet was resuspended in centrifugation buffer 2 (Tris HCl, 50 mM; EDTA, 1 mM; and MgCl2, 3 mM, pH 7.4) to a protein concentration of approximately 2 mg/ml. Protein concentrations were determined by the method of Bradford (1976) using Bio-Rad Protein Assay (Bio-Rad, Richmond, Calif.) and BSA standards (fatty acid free, Sigma Chemical Co., St. Louis, Mo.). The membrane preparation was divided into amounts convenient for binding assays and frozen rapidly in dry ice and stored at −80% C.
Binding was initiated by the addition of 50 μg of quickly thawed P2 membranes to test tubes containing [^3H]CP-55,940 (final reaction concentration 0.5 nM), an appropriate concentration of unlabeled CP-55,940 or test drug, and sufficient quantity of assay buffer (50 mM Tris-HCl, 1 mM EDTA, 3 mM MgCl2, 5 mg/ml bovine serum albumin, pH 7.4) to bring the total incubation volume to 0.5 ml. Concentration of [^3H]CP-55,940 in saturation studies ranged from 50 to 10,000 pM. Nonspecific binding was determined by the addition of 1 μM unlabeled CP-55,940. CP-55,940 and all cannabinoid analogs were prepared by suspension in assay buffer from a 1 mg/ml ethanolic stock without evaporation of the ethanol (final concentration of no more than 0.4%). In competition studies, analog concentrations ranged from 0.1 nM to 10 μM. After incubation at 30% C for 1 hr, binding was terminated by the addition of 2 ml of ice-cold wash buffer (50 mM Tris-HCl and 1 mg/ml BSA) and vacuum filtration through pre-treated filters in a 12-well sampling manifold (Millipore, Bedford, Mass.). Reaction vessels were washed once with 2 ml of ice-cold wash buffer. Filters were placed into 7-ml plastic scintillation vials (RPI Corp., Mount Prospect, Ill.) with 4 ml of Budget-Solve (RPI Corp.). After shaking for 30 min, the radioactivity present was determined by liquid scintillation spectrometry. Three reaction vessels were used for each drug concentration in each assay. The results represent the combined data of three independent experiments. All assays were performed in siliconized test tubes, which were prepared by air drying (12 hr) inverted borosilicate tubes after two rinses with a 0.1% solution of AquaSil (Pierce, Rockford, Ill.). The GF/C glass-fiber filters (2.4 cm, Baxter, McGaw Park, Ill.) were pre-treated in a 0.1% solution of pH 7.4 polyethylenimine (Sigma Chemical Co.) for at least 6 hr.
(§1) In addition, multiple linear regression was used to calculate the overall degree of relationship between CB1 binding affinity and potency in the mouse measures for all active cannabinoids. […] Ki values for CB1 and CB2 binding were obtained from Scatchard displacement analysis as determined via EBDA program of the KELL software package (Biosoft, Milltown, N.J.).

[2] = molecular target: CB1 receptor (Rattus norvegicus, UniProt P20272); assay: CB1 binding procedure: displacement of [3H]CP 55,940 from rat whole-brain P2 membranes; parameters: whole brain was homogenized and centrifuged; from tissue; host or cells: rat whole brain, P2 membrane fraction; conditions: means ± SEM; [3H]CP 55,940, rat brain membranes; read-out: Ki (nM) CB1
Chain of CB1 receptor (P20272 whole entry): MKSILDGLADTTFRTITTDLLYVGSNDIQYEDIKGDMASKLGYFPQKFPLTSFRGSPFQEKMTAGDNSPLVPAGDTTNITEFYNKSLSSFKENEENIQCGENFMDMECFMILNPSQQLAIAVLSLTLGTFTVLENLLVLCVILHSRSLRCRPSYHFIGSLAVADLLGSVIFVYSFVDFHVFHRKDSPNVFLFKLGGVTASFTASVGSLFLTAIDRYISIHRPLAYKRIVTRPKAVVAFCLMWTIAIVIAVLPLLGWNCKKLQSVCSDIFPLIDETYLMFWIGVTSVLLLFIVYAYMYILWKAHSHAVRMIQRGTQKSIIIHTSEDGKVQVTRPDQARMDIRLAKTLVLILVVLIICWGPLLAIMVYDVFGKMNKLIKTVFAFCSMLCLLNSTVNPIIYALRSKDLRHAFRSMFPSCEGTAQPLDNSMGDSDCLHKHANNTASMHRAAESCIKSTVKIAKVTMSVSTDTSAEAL
Description: (§2) Male ICR mice (25–32 g), obtained from Harlan (Dublin, Va.), were housed in groups of five. All animals were kept in a temperature-controlled (20–22° C.) environment with a 12-hour light-dark cycle (lights on at 7 a.m.). Separate mice were used for testing each drug dose in the in vivo behavioral procedures. Brain tissue for binding studies was obtained from male Sprague-Dawley rats (150–200 g) purchased from Harlan Laboratories (Dublin, Va.).
The methods used for tissue preparation and binding have been described previously (Compton et al., 1993) and are similar to those described by Devane et al. (1988). All assays, as described briefly below, were performed in triplicate, and the results represent the combined data from three to six individual experiments.
Following decapitation and rapid removal of the brain, whole brain was homogenized and centrifuged. The resulting pellet was termed P1. The supernatant was saved and combined with the two subsequent supernatants obtained from washing of the P1 pellet. The combined supernatant fractions were centrifuged, resulting in the P2 pellet. After further incubation and centrifuging, this pellet was resuspended in assay buffer to a protein concentration of approximately 2 mg/ml. The membrane preparation was quickly frozen in a bath solution of dry ice and 2-methylbutane (Sigma Chemical Co., St. Louis, Mo.), then stored at −80° C. for no more than 2 weeks. Prior to performing a binding assay an aliquot of frozen membrane was rapidly thawed and protein values determined by the method of Bradford (1976).
Binding was initiated by the addition of 150 μg of P2 membrane to test tubes containing 1 nM of [^3H] CP 55,940 (79 Ci/mmol) and a sufficient quantity of buffer to bring the total incubation volume to 1 ml. Nonspecific binding was determined by the addition of 1 μM unlabeled CP 55,940. Following incubation at 30° C. for 1 hr, binding was terminated by addition of ice cold buffer and vacuum filtration through pretreated filters in a 12-well sampling manifold (Millipore, Bedford, Mass.). After washing, filters were placed into plastic scintillation vials (Packard, Downer Grove, Ill.) and shaken. The quantity of radioactivity present was determined by liquid scintillation spectrometry.
as §1

[3] = system: Male ICR mice; assay: Tail-flick antinociception (TF, % MPE) in mice; assay type: in vivo, mouse; conditions: for ED50: Mus musculus, iv
Description: as §2
(§3) Measurement of spontaneous activity in mice occurred in standard activity chambers interfaced with a Digiscan Animal Activity Monitor (Omnitech Electronics, Inc., Columbus, Ohio). A standard tail-flick apparatus and a digital thermometer (Fisher Scientific, Pittsburgh, Pa.) were used to measure antinociception and rectal temperature, respectively
(§4) Resorcinols were synthesized in our labs (Organix, Inc., Woburn, Mass.) according to the procedure specified below and were suspended in a vehicle of absolute ethanol, Emulphor-620 (Rhone-Poulenc, Inc., Princeton, N.J.), and saline in a ratio of 1:1:18. Drugs were administered to the mice intravenously (i.v.) in the tail vein at a volume of 0.1 ml/10 g.
(§5) Prior to testing in the behavioral procedures, mice were acclimated to the experimental setting (ambient temperature 22–24° C.) overnight. Pre-injection control values were determined for rectal temperature and tail-flick latency (in sec). […] Tail-flick latency was measured at 20 min post-injection. Maximum latency of 10 sec was used. Antinociception was calculated as percent of maximum possible effect {% MPE=[(test−control latency)/(10-control)]×100}. Control latencies typically ranged from 1.5 to 4.0 sec. At 30 min post-injection, rectal temperature was measured This value was expressed as the difference between control temperature (before injection) and temperatures following drug administration (° C.). Different mice (n=5–6 per dose) were tested for each dose of each compound. Each mouse was tested in each of the 3 procedures.
(§6) Based on data obtained from numerous previous studies with cannabinoids, maximal cannabinoid effects in each procedure were estimated as follows: 90% inhibition of spontaneous activity, 100% MPE in the tail flick procedure, and −6° C. change in rectal temperature. ED50's were defined as the dose at which half maximal effect occurred. For drugs that produced one or more cannabinoid effect, ED50's were calculated separately using least-squares linear regression on the linear part of the dose-effect curve for each measure in the mouse tetrad, plotted against log10 transformation of the dose. For the purposes of potency comparison, potencies were expressed as μmol/kg.

[4] = system: Male ICR mice; assay: Change in rectal temperature (RT) in mice; assay type: in vivo, mouse; conditions: for ED50: Mus musculus, iv
Description: as §2, §3, §4, §5, §6

[5] = system: Male ICR mice; assay: Suppression of spontaneous activity (SA) in mice; assay type: in vivo, mouse; conditions: for S.A ED50 / ED50 SA (suppression of spontaneous activity): mice, i.v.; for ED50 SA (suppression of spontaneous activity): 95% confidence limits in parentheses
Description: as §2, §3, §4, §5, §6

[6] = mice, i.v., 95% confidence limits in parentheses

Compound | CB1/CB2 (ratio of Ki) [1] | Ki [1] [nM] | Ki [2] [nM] | ED50 ([3]; Table 6, mice, i.v., read-out: T.F. ED50) [mg/kg] | ED50 ([3]; mice, i.v., 95% confidence limits in parentheses, read-out: ED50 TF (antinociceptive effect in tail flick assay)) [µmol/kg] | ED50 ([4]; Table 6, mice, i.v., read-out: R.T. ED50) [mg/kg] | ED50 ([4]; mice, i.v., 95% confidence limits in parentheses, read-out: ED50 RT (rectal temperature)) [µmol/kg] | S.A ED50 ([5]; Table 6, listed as O-1297) [mg/kg] | ED50 SA (suppression of spontaneous activity) [5] | T.F. ED50 ([3]; Table 6, mice, i.v.) [mg/kg] | ED50 TF (antinociceptive effect in tail flick assay) [3, 6] | R.T. ED50 ([4]; Table 6, mice, i.v.) [mg/kg] | ED50 RT (rectal temperature) [4, 6] | S.A ED50 ([5]; Table 6) [mg/kg] | T.F. % effect at dose ([3]; Table 6, @ 30 (mg/kg)) [% @ 30] | R.T. effect at dose ([4]; Table 6, @ 30 (mg/kg)) | S.A % effect at dose ([5]; Table 6, @ 30 (mg/kg))
CCCCCCC(C)(C)c1cc(O)c(C2CCCC(C)C2)c(O)c1 (single isomer, unassigned) [O-1797A] | 12 | 0.4 ± 0.03 | 5 ± 0.6 | 0.362 | 1.1 | 0.252 | 0.7 | 0.154 | 0.5(0.4–0.6) μmol/kg | – | – | – | – | – | – | – | –
CCCCCCC(C)(C)c1cc(O)c(C2CCCC(C)C2)c(O)c1 (single isomer, unassigned) [O-1798B, 2-(3-Methylcyclohexyl)-5-(1′,1′-dimethylheptyl)-resorcinolisomer B] | 8 | 0.5 ± 0.07 | 4 ± 0.6 | – | – | – | – | – | 0.2(0.03–1.2) μmol/kg | 0.379 | 1.0(0.7–1.6) μmol/kg | 0.218 | 0.6(0.5–0.7) μmol/kg | 0.070 | – | – | –
CCCCCCC(C)(C)c1cc(OC)c(C2(O)CCCC(C)C2)c(OC)c1 (single isomer, unassigned; isomer 2) [O-1967B, 1-(4-(1,1-Dimethylheptyl-2,6-dimethoxy-phenyl)-3-methyl-cyclohexaol isomer 2] | 15 | 111 ± 8 | 1720 ± 105 | – | – | – | – | – | – | – | – | – | – | – | 8.2 | 0 @ 30 °C | 42.9 @ 30%
